Reference: publication PMC11271275, “The structural insight into the functional modulation of human anion exchanger 3” (Nature Communications, 2024)
Values belong to the molecule of their own block, whether it stands above or below them.

Experiments:
AE2 (human SLC4A2) [1] = target: T1, AE2 (human SLC4A2) (Homo sapiens, UniProt P04920); experiment: BCECF intracellular pH assay on Cl- reintroduction, SLC4A2-KO HEK293F cells; type: cell-based; parameters: overexpressed in SLC4A2-KO HEK293F cells; P04920-1 printed for the AE2 part of the chimera; settings: 40 µM DIDS; 25 mM NaHCO3, pH 7.4
T1 sequence (P04920 1-1241): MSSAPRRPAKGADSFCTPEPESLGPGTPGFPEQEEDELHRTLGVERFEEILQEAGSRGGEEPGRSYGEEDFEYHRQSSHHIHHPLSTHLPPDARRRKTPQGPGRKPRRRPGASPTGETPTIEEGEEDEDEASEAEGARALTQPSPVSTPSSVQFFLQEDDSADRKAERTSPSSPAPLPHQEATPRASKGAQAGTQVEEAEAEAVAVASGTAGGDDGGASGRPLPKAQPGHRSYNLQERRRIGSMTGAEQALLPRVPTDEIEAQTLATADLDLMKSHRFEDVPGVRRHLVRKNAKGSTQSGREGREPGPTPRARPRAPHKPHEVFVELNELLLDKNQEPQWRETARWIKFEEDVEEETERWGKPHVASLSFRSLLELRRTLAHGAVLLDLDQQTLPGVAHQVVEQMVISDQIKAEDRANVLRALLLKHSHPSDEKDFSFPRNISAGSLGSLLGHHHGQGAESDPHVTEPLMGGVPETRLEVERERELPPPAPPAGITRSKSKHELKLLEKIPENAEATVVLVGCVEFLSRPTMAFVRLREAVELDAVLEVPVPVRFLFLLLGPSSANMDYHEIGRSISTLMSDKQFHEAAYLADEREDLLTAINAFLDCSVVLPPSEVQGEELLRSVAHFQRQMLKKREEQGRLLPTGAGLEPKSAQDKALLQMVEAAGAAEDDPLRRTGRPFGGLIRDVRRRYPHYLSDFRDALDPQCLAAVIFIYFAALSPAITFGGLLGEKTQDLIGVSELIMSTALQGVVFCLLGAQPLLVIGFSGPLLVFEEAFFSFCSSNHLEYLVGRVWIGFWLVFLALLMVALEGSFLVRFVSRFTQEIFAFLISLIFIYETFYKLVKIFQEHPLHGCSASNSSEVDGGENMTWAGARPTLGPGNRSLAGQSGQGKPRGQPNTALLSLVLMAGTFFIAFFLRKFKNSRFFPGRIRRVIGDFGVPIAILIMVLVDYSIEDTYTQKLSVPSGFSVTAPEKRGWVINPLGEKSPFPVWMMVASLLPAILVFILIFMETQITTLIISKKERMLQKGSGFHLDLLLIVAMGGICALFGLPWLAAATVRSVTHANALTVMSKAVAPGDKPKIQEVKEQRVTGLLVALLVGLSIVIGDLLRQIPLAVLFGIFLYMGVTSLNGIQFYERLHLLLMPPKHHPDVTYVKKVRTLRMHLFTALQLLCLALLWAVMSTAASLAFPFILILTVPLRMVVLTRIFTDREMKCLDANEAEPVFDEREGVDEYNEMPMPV

AE2 (human SLC4A2) [2] = target: T1, AE2 (human SLC4A2); settings: Cl-/HCO3- exchange; 25 mM NaHCO3, pH 7.4
[3] = target: hAE3^NTD2^TMD chimera (NTD of hAE3 fused to TMD of hAE2) (human) (UniProt P04920); experiment: cryo-EM structure; hAE3^NTD2^TMD chimera in GDN; 300 kV Titan Krios, C2 symmetry; 3.35 Å; TMDs inward-facing
[4] = target: the molecule itself; experiment: SEC + other: 200 kV cryo-EM analysis; Superose 6 Increase 10/300 GL, 150 mM NaCl, 20 mM HEPES pH 7.4, 0.01% GDN, 4 °C; protein solubilised with LMNG

Molecule: O=S(=O)(O)c1cc(N=C=S)ccc1/C=C/c1ccc(N=C=S)cc1S(=O)(=O)O [DIDS, 4,4’-diisothiocyanatostilbene-2,2’-disulfonate]
inhibition at 40 μM (AE2 (human SLC4A2) [1]): activities of AE2 and AE3 could be inhibited by adding DIDS

Molecule: O=C(O)O [HCO3^−]
BCECF intracellular pH assay on Cl- reintroduction, SLC4A2-KO HEK293F cells (AE2 (human SLC4A2) [2]): a lower pH-modulating function than that observed for AE2

stoichiometry N [3]: 2
Molecule: hAE3^NTD2^TMD chimera (NTD of hAE3 fused to TMD of hAE2) (from UniProt P04920-1 672-1241)

B1: human anion exchanger 3, cardiac isoform (hAE3) (natural protein, UniProt P48751-1 300-1232, looked up)
chain: GLAPILRRKKKKKKLDRRPHEVFVELNELMLDRSQEPHWRETARWIKFEEDVEEETERWGKPHVASLSFRSLLELRRTIAHGAALLDLEQTTLPGIAHLVVETMIVSDQIRPEDRASVLRTLLLKHSHPNDDKDSGFFPRNPSSSSMNSVLGNHHPTPSHGPDGAVPTMADDLGEPAPLWPHDPDAKEKPLHMPGGDGHRGKSLKLLEKIPEDAEATVVLVGCVPFLEQPAAAFVRLNEAVLLESVLEVPVPVRFLFVMLGPSHTSTDYHELGRSIATLMSDKLFHEAAYQADDRQDLLSAISEFLDGSIVIPPSEVEGRDLLRSVAAFQRELLRKRREREQTKVEMTTRGGYTAPGKELSLELGGSEATPEDDPLLRTGSVFGGLVRDVRRRYPHYPSDLRDALHSQCVAAVLFIYFAALSPAITFGGLLGEKTEGLMGVSELIVSTAVLGVLFSLLGAQPLLVVGFSGPLLVFEEAFFKFCRAQDLEYLTGRVWVGLWLVVFVLALVAAEGSFLVRYISPFTQEIFAFLISLIFIYETFYKLYKVFTEHPLLPFYPPEGALEGSLDAGLEPNGSALPPTEGPPSPRNQPNTALLSLILMLGTFFIAFFLRKFRNSRFLGGKARRIIGDFGIPISILVMVLVDYSITDTYTQKLTVPTGLSVTSPDKRSWFIPPLGSARPFPPWMMVAAAVPALLVLILIFMETQITALIVSQKARRLLKGSGFHLDLLLIGSLGGLCGLFGLPWLTAATVRSVTHVNALTVMRTAIAPGDKPQIQEVREQRVTGVLIASLVGLSIVMGAVLRRIPLAVLFGIFLYMGVTSLSGIQLSQRLLLILMPAKHHPEQPYVTKVKTWRMHLFTCIQLGCIALLWVVKSTAASLAFPFLLLLTVPLRHCLLPRLFQDRELQALDSEDAEPNFDEDGQDEYNELHMPV
notes: Anion exchanger 3 (AE3, SLC4A3), human, cardiac isoform; amino acids 300-1232 by the numbering of UniProt P48751-1 (results); the methods name the cDNA as human Cardiac Anion Exchanger 3, UniProt P48751-2; the introduction says cAE3 lacks residues 1-296 of bAE3; A TEV protease site follows the N-terminal tags in the modified pCAGGS vector; no cleavage is described; The N-terminal domain was not …
stoichiometry N [4]: 2
